Measurements: patent US20250195521A1 (Revolution Medicines, Inc., priority 2020, published 2025)
pEC50, pIC50: −log10 of the molar value. Like-named read-outs stand apart in the source and are kept apart here.

Legend:
[1] = system: K-Ras G12C (NCI-H358 cells); test: Potency assay: pERK in NCI-H358 cells; assay type: cell-based, human; details: NCI-H358 cells, 4 hours, read-out: pERK EC50 (H358 KRAS G12C)
Procedure, shortened: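 Cells plated the day before were exposed for 4 h at 37° C, 5% CO2 to a 10-point, 3-fold DMSO dilution series (10 mM top stock), in duplicate. Phospho-ERK was read by AlphaLISA SureFire Ultra or by In-Cell Western with DRAQ5 DNA stain, and IC50 came from a 4-parameter sigmoidal fit.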

[2] = target: KRAS G13D (Homo sapiens (Human), UniProt P01116+P62937, G13D); test: Ras-Raf disruption/FRET/MOA assay (BRAF RBD, Cyclophilin A); assay type: biochemical; details: read-out: KRAS G13D FRET data IC50
Procedure, shortened: (§1)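 Measured: compound-facilitated Cyclophilin A:Ras complex blocking RAF RBD binding. Conditions: 12.5 nM Ras-GMPPNP, 50 nM BRAF RBD, 25 μM CypA, 3 h plus 1.5 h detection. Output: IC50 from TR-FRET ratio.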

[3] = target: KRAS WT (Homo sapiens (Human), UniProt P01116+P62937); test: as above; assay type: biochemical; details: read-out: KRAS WT FRET data IC50
Procedure, shortened: as §1

[4] = target: KRAS G12S (Homo sapiens (Human), UniProt P01116+P62937, G12S); test: as above; assay type: biochemical; details: read-out: KRAS G12S FRET IC50
Procedure, shortened: as §1

[5] = target: KRAS Q61H (Homo sapiens (Human), UniProt P01116+P62937, Q61H); test: as above; assay type: biochemical
Procedure, shortened: as §1

[6] = target: KRAS G12V (Homo sapiens (Human), UniProt P01116+P62937, G12V); test: as above; assay type: biochemical; details: read-out: KRAS G12V FRET IC50
Procedure, shortened: as §1

[7] = target: KRAS G12C (Homo sapiens (Human), UniProt P01116+P62937, G12C); test: as above; assay type: biochemical; details: read-out: KRAS G12C FRET IC50
Procedure, shortened: as §1

[8] = target: NRAS G12C (Homo sapiens (Human), UniProt P01111+P62937, G12C); test: as above; assay type: biochemical; details: read-out: NRAS G12C FRET data IC50
Procedure, shortened: (§2)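 25 μM tagless Cyclophilin A, 12.5 nM His6-Ras-GMPPNP and 50 nM GST-BRAF RBD in HEPES pH 7.3 buffer with 5 mM MgCl2, with compound (10-point 3-fold series from 30 μM final) for 3 h at 25 °C. Anti-His Eu and anti-GST APC then added for 1.5 h. IC50 from TR-FRET ratio decrease versus DMSO.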

[9] = target: NRAS WT (Homo sapiens (Human), UniProt P01111+P62937); test: as above; assay type: biochemical
Procedure, shortened: as §2

[10] = target: KRAS G13C (Homo sapiens (Human), UniProt P01116+P62937, G13C); test: as above; assay type: biochemical; details: read-out: KRAS G13C FRET IC50
Procedure, shortened: as §1

[11] = target: KRAS G12D (Homo sapiens (Human), UniProt P01116+P62937, G12D); test: as above; assay type: biochemical; details: read-out: KRAS G12D FRET IC50
Procedure, shortened: as §1

[12] = system: Capan-1 cells (K-Ras G12V); test: CellTiter-Glo cell viability, Capan-1; assay type: cell-based, human; details: K-Ras G12V, 5-day treatment, read-out: Capan-1 Cell Viability IC50
Procedure, shortened: (§3)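 Cells seeded, compound dispensed straight into wells, 5-day exposure. Plates brought to room temperature ~30 min, CellTiter-Glo luminescence measured. Normalized to DMSO (%), 4-parameter logistic fit.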

[13] = system: NCI-H358 cells (K-Ras G12C); test: CellTiter-Glo cell viability, NCI-H358; assay type: cell-based, human; details: K-Ras G12C, 5-day treatment, read-out: H358 Cell Viability IC50
Procedure, shortened: as §3

[14] = target: K-Ras G12C(GMP-PNP) binding to BRAF RBD (Homo sapiens (Human), UniProt P01116+P62937, G12C); test: Disruption of BRAF RBD interaction with K-Ras (FRET / MOA assay), K-Ras G12C; assay type: biochemical; details: read-out: KRAS G12C FRET IC50
Procedure, shortened: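 Compounds promote ternary complex of nucleotide-loaded Ras (here K-Ras G12C·GMP-PNP; other Ras mutants substituted) with cyclophilin A, disrupting BRAF RBD binding. 10-point 3-fold series from 30 μM final, 3 h at 25 °C, then anti-His Eu (10 nM) and anti-GST APC (50 nM) for 1.5 h. TR-FRET ratio decrease versus DMSO gave IC50.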

[15] = system: NCI-H358 (K-Ras G12C); test: CellTiter-Glo cell viability assay, NCI-H358; assay type: cell-based, human; details: 5-day treatment; read-out: H358 Cell Viability assay data (K-Ras G12C, IC50)
Procedure, shortened: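 Cells seeded, compound added directly to plates; day 5: plates to RT ~30 min, CellTiter-Glo luminescence; (sample/avg DMSO)*100; 4-parameter fit.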

NRAS G12C, sequence (P01111 whole entry G12C): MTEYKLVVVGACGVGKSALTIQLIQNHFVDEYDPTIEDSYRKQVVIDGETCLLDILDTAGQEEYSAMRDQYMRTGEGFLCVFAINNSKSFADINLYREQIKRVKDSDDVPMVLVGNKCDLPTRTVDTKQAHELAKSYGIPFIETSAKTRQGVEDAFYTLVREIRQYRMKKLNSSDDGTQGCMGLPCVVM
NRAS G12C, sequence (P62937 whole entry): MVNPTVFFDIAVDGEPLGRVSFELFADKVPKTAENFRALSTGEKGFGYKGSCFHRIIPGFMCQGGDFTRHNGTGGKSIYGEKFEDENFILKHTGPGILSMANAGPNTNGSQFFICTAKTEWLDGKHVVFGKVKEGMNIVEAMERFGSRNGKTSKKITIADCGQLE
NRAS WT, sequence (P01111 whole entry): as the sequence (P01111 whole entry G12C) above, with C12G counted along it
NRAS WT, sequence (P62937 whole entry): as the sequence (P62937 whole entry) above

Compound | pEC50 ([1]; Homo sapiens) | pIC50 [2] | pIC50 [3] | pIC50 [4] | pIC50 [5] | pIC50 [6] | pIC50 [7] | pIC50 [8] | pIC50 [9] | pIC50 [10] | pIC50 [11] | pIC50 ([13]; Homo sapiens, NCI-H358, 120 h) | pIC50 ([12]; Homo sapiens, CAPAN-1, 120 h) | pIC50 [13] | pIC50 [14] | pIC50 [15] | pIC50 [12] | pEC50 [1]
CCO[C@@H]1c2nc(cs2)-c2ccc3c(c2)c(c(-c2cccnc2[C@H](C)OC)n3CC)CC(C)(C)COC(=O)[C@@H]2CCCN(N2)C(=O)[C@H]1NC(=O)[C@H]1[C@H](C)[C@@H]1c1cn(C)cn1 [Compound A507, (1R,2S,3R)—N-((6^3S,3S,4S,Z)-3-ethoxy-1^1-ethyl-1^2-(2-((S)-1-methoxyethyl)pyridin-3-yl)-10, 10-dimethyl-5,7-dioxo-6^1,6^2,6^3,6^4,6^5,6^6-hexahydro-1^1H-8-oxa-2 (4,2)-thiazola-1 (5,3)-indola-6 (1,3)-pyridazinacycloundecaphane-4-yl)-2-methyl-3-(1-methyl-1H-imidazol-4-yl) cyclopropane-1-carboxamide] | – | – | – | 7.00 to 8.00 | 7.00 to 8.00 | 7.00 to 8.00 | 7.00 to 8.00 | – | – | 7.00 to 8.00 | 7.00 to 8.00 | – | – | 7.00 to 8.00 | 6.00 to 7.00 | 6.00 to 7.00 | 6.00 to 7.00 | –
CCn1c(-c2cccnc2[C@H](C)OC)c2c3cc(ccc31)-c1csc(n1)C[C@H](NC(=O)[C@H](C(C)C)N(C)C(=O)N1CCC13COC3)C(=O)N1CCC[C@H](N1)C(=O)OCC(C)(C)C2 [Compound A560] | > 5.30 | 6.00 to 7.00 | 7.00 to 8.00 | 6.00 to 7.00 | 7.00 to 8.00 | 6.00 to 7.00 | 7.00 to 8.00 | 7.00 to 8.00 | 7.00 to 8.00 | 6.00 to 7.00 | 6.00 to 7.00 | 7.00 to 8.00 | 6.00 to 7.00 | – | – | – | – | –
(2S)—N-[(8S,14S)-22-ethyl-4-hydroxy-18, 18-dimethyl-21-[6-(4-methylpiperazin-1-yl) pyridin-3-yl]-9,15-dioxo-16-oxa-10,22,28-triazapentacyclo [18.5.2.1^2,6.1^10,14.0^23,27]nonacosa-1 (26), 2,4,6 (29), 20,23 (27),24-heptaen-8-yl]-3-methyl-2-{N-methyl-1-[(3S)-1-(prop-2-enoyl) pyrrolidin-3-yl]formamido}butanamide [Compound A89] | – | – | – | 6.00 to 7.00 | 7.00 to 8.00 | 6.00 to 7.00 | 6.00 to 7.00 | – | – | 7.00 to 8.00 | 6.00 to 7.00 | – | – | – | – | 7.00 to 8.00 | 5.00 to 6.00 | > 5.30

Further lines, with some results ahead:

pEC50 ([1]; Homo sapiens) | pIC50 [2] | pIC50 [3] | pIC50 [4] | pIC50 [5] | pIC50 [6] | pIC50 [7] | pIC50 [8] | pIC50 [9] | pIC50 [10] | pIC50 [11] | pIC50 ([13]; Homo sapiens, NCI-H358, 120 h) | Compound | pIC50 ([12]; Homo sapiens, CAPAN-1, 120 h) | pIC50 [13] | pIC50 [14] | pIC50 [15] | pIC50 [12] | pEC50 [1]
> 5.30 | 6.00 to 7.00 | 7.00 to 8.00 | 6.00 to 7.00 | 7.00 to 8.00 | 6.00 to 7.00 | 7.00 to 8.00 | 7.00 to 8.00 | 7.00 to 8.00 | 6.00 to 7.00 | 6.00 to 7.00 | – | CCn1c(-c2cccnc2[C@H](C)OC)c2c3cc(ccc31)-c1csc(n1)C[C@H](NC(=O)[C@H](C(C)C)N(C)C(=O)N1CCOC3(COC3)C1)C(=O)N1CCC[C@H](N1)C(=O)OCC(C)(C)C2 [Compound A475] | 7.00 to 8.00 | – | – | – | – | –
– | 6.00 to 7.00 | 7.00 to 8.00 | 7.00 to 8.00 | 7.00 to 8.00 | 7.00 to 8.00 | 7.00 to 8.00 | 7.00 to 8.00 | 7.00 to 8.00 | 7.00 to 8.00 | 6.00 to 7.00 | – | CCn1c(-c2cccnc2[C@H](C)OC)c2c3cc(ccc31)-c1csc(n1)C[C@H](NC(=O)[C@H](C(C)C)N(C)C(=O)N1CC(Cc3cnn(C)c3)C1)C(=O)N1CCC[C@H](N1)C(=O)OCC(C)(C)C2 [Compound A500] | – | – | – | – | – | –
> 5.30 | 6.00 to 7.00 | 7.00 to 8.00 | 6.00 to 7.00 | 7.00 to 8.00 | 6.00 to 7.00 | 7.00 to 8.00 | 7.00 to 8.00 | 7.00 to 8.00 | 6.00 to 7.00 | 6.00 to 7.00 | > 8.00 | CCn1c(-c2cccnc2[C@H](C)OC)c2c3cc(ccc31)-c1csc(n1)C[C@H](NC(=O)[C@H](C(C)C)N(C)C(=O)N1CCN3C(=O)CN(C)C[C@@H]3C1)C(=O)N1CCC[C@H](N1)C(=O)OCC(C)(C)C2 [Compound A536] | 7.00 to 8.00 | – | – | – | – | –
